From patent US20130302311A1, “EMERGENCY INTERVENTIONS OF ACTIVE CHARCOAL WITH DABIGATRAN ETEXILATE OVERDOSING” (BOEHRINGER INGELHEIM INTERNATIONAL GMBH, priority 2009, published 2013)

Tests used:
[1] = Binding of dabigatran etexilate to activated charcoal in water (simulated stomach fluid), HPLC; format: physicochemical; details: for dabigatran etexilate level recovered by HPLC: untreated suspension (no charcoal), filtered
Protocol: In these experiments, binding of dabigatran etexilate to active charcoal in water simulates recent ingestion (2-5, preferably 2-3 hrs) of large amounts of dabigatran etexilate in the stomach fluid. Binding of dabigatran to active charcoal in plasma simulates situations where dabigatran was absorbed after ingestion and present in high concentrations in plasma. The contents of 5, 10 and 20 capsules (150 mg/capsule) of dabigatran etexilate were suspended in 100 ml water (approx. stomach volume, pH 2.7, 2.5 and 2.4, respectively). Each suspension was divided in half. To one portion a freshly prepared activated charcoal suspension (125 mg/ml, Ultracarbon®, Merck) was added. Both suspensions (with and without charcoal) were filtered and dabigatran etexilate concentrations were assessed via HPLC.

[2] = Binding of dabigatran to active charcoal in plasma, LC-MS/MS; format: physicochemical; details: for dabigatran plasma level (mean±SD): untreated plasma (no charcoal)
Protocol: In these experiments, binding of dabigatran etexilate to active charcoal in water simulates recent ingestion (2-5, preferably 2-3 hrs) of large amounts of dabigatran etexilate in the stomach fluid. Binding of dabigatran to active charcoal in plasma simulates situations where dabigatran was absorbed after ingestion and present in high concentrations in plasma. In the plasma experiments, dabigatran was added to a plasma pool at supra-therapeutic concentrations of 470 and 940 ng/ml. The sample was then split, and active charcoal was added to half at the manufacturer's specified concentration (125 mg/ml), or 1:11 dilution of this. Dabigatran plasma levels were measured by a validated LC-MS/MS method.

| dabigatran etexilate peak (HPLC) in charcoal-treated suspensions ([1]; activated charcoal suspension (125 mg/ml, Ultracarbon) added, all three tested concentrations) | dabigatran etexilate adsorbed by the activated charcoal ([1]; activated charcoal suspension (125 mg/ml, Ultracarbon), all three tested concentrations) [%] | dabigatran etexilate level recovered by HPLC ([1]; contents of 5 capsules (150 mg/capsule) in 100 ml water, pH 2.7) [mg/mL] | dabigatran etexilate level recovered by HPLC ([1]; contents of 10 capsules (150 mg/capsule) in 100 ml water, pH 2.5) [mg/mL] | dabigatran etexilate level recovered by HPLC ([1]; contents of 20 capsules (150 mg/capsule) in 100 ml water, pH 2.4) [mg/mL] | dabigatran plasma level after addition of activated charcoal ([2]; activated charcoal at 125 mg/ml or 1:11 dilution, dabigatran added at 470 and 940 ng/ml, close to or below lower limit of quantification) [ng/mL] | dabigatran plasma level (mean±SD) ([2]; dabigatran added at 470 ng/ml) [ng/mL] | dabigatran plasma level (mean±SD) ([2]; dabigatran added at 940 ng/ml) [ng/mL] | Compound |
| --- | --- | --- | --- | --- | --- | --- | --- | --- |
| no longer detectable | > 99.9 | 8.3 | 15.6 | 29.6 | – | – | – | CCCCCCOC(=O)NC(=N)c1ccc(NCc2nc3cc(C(=O)N(CCC(=O)OCC)c4ccccn4)ccc3n2C)cc1 [dabigatran etexilate] |
| – | – | – | – | – | < 1.01 | 394 ± 19.4 | 824 ± 39.3 | Cn1c(CNc2ccc(C(=N)N)cc2)nc2cc(C(=O)N(CCC(=O)O)c3ccccn3)ccc21 [dabigatran] |
